# Assay results: article PMC10044120, “Potent and selective covalent inhibition of the papain-like protease from SARS-CoV-2” (Nature Communications, 2023)
# Like-named read-outs stand apart in the source and are kept apart here.
# Columns and labels:
# Vero E6 cells [1] = tested on: Vero E6 cells
# SARS-CoV-2 USA-WA1/2020 = assay: CPE assay, neutral red, Vero E6 cells with 2 μM CP-100356, USA-WA1/2020; assay type: cell-based; details: for Percent Cytopathic Effect (Neutral Red): USA-WA1/2020
# Vero E6 cells [2] = assay: Cytotoxicity in uninfected Vero E6 cells, CellTiter-Glo
# [3] = as above; details: African green monkey
# [4] = tested on: SARS-CoV-2 Omicron (B.1.1.529); assay: microbe, parasite or virus in culture; assay type: cell-based; details: Severe acute respiratory syndrome coronavirus 2; Omicron (B1.1.529), Caco-2
# [5] = tested on: SARS-CoV-2 Omicron (B.1.1.529); assay: CPE assay, neutral red, Vero E6 cells with 2 μM CP-100356, Omicron; assay type: cell-based; details: Severe acute respiratory syndrome coronavirus 2, Vero C1008
# [6] = molecular target: full-length SARS-CoV-2 hemagglutinin (HA)-Nsp3 (Severe acute respiratory syndrome coronavirus 2, UniProt P0DTD1); assay: biochemical
# in vitro = details: African green monkey
smiles,measurement,setting,value
"COC(=O)/C=C/C(=O)NNC(=O)CCc1ccccc1C(=O)N[C@H](C)c1cccc2ccccc12 [Compound 7, methyl(R,E)-4-(2-(3-(2-((1-(naphthalen-1 yl)ethyl)carbamoyl)phenyl)propanoyl)hydrazineyl)-4-oxobut-2-enoate]",CC50,"Caco-2 cells; Caco-2, Delta rows",> 10 µM
same,CC50,"Caco-2 cells; Caco-2, Omicron rows",> 10 µM
same,CC50,"Vero E6 cells [1]; Vero E6, 2 μM CP-100356, Delta rows",> 10 µM
same,CC50,"Vero E6 cells [1]; Vero E6, 2 μM CP-100356, Omicron rows",> 10 µM
same,EC50,"SARS-CoV-2 USA-WA1/2020; Severe acute respiratory syndrome coronavirus 2, Vero C1008",0.068 µM
same,Percent Cytopathic Effect (Neutral Red),SARS-CoV-2 USA-WA1/2020; 0.01 µM,90.5%
same,Percent Cytopathic Effect (Neutral Red),SARS-CoV-2 USA-WA1/2020; 0.1 µM,41.8%
same,Percent Cytopathic Effect (Neutral Red),SARS-CoV-2 USA-WA1/2020; 1 µM,46.4%
same,Percent Cytopathic Effect (Neutral Red),SARS-CoV-2 USA-WA1/2020; 10 µM,13.5%
same,"% cell viability, cytotoxicity",Vero E6 cells [2]; 2.08 uM,98.575%
same,"% cell viability, cytotoxicity",Vero E6 cells [2]; 8.33 uM,99.545%
same,"% cell viability, cytotoxicity",Vero E6 cells [2]; 16.65 uM,90.390%
same,CC50 < 30 μM,"Vero E6 cells [2]; uninfected Vero E6 cells, Yes/No",No
same,"viability at 48 h, 2.08 µM","[3]; % cell viability, cytotoxicity, 2.08 uM",100%
same,"viability at 48 h, 8.33 µM","[3]; % cell viability, cytotoxicity, 8.33 uM",99.6%
same,"viability at 48 h, 16.65 µM","[3]; % cell viability, cytotoxicity, 16.65 uM",95.7%
same,CC50 at 48 h,"[3]; CC50, uninfected Vero E6 cells",> 30 µM
same,EC90,[4],2.4 µM
same,EC50,[5],0.68 µM
same,inhibition at 0.003 µM,"[6]; 0.003 uM, read-out: Percent Nsp3 inhibition",-4%
same,Percent Nsp3 inhibition,[6]; 1.852 uM,84.0%
same,inhibition at 1.852 µM,"[6]; 1.852 uM, read-out: Percent Nsp3 inhibition",83.9%
same,Percent Nsp3 inhibition,[6]; 50.000 uM,89.9%
same,inhibition at 50 µM,"[6]; 50.000 uM, read-out: Percent Nsp3 inhibition",90.7%
same,CC50,in vitro,> 10 µM
same,cytotoxicity at 0.01 µM,in vitro,6.3%
same,cytotoxicity at 0.1 µM,in vitro,1.1%
same,cytotoxicity at 1 µM,in vitro,3.3%
same,cytotoxicity at 10 µM,in vitro,27.4%
same,cytotoxicity at 0.01 µM,"in vitro; Percent Cytotoxicity (Neutral Red), Vero E6, SARS2-733 (Delta set), 0.01 µM",11.8%
same,cytotoxicity at 0.1 µM,"in vitro; Percent Cytotoxicity (Neutral Red), Vero E6, SARS2-733 (Delta set), 0.1 µM",7.1%
same,cytotoxicity at 1 µM,"in vitro; Percent Cytotoxicity (Neutral Red), Vero E6, SARS2-733 (Delta set), 1 µM",4.8%
same,cytotoxicity at 10 µM,"in vitro; Percent Cytotoxicity (Neutral Red), Vero E6, SARS2-733 (Delta set), 10 µM",9.3%
same,cytotoxicity at 0.01 µM,"in vitro; Percent Cytotoxicity (Neutral Red), Vero E6, SARS2-735, 0.01 µM",0%
same,cytotoxicity at 0.1 µM,"in vitro; Percent Cytotoxicity (Neutral Red), Vero E6, SARS2-735, 0.1 µM",0%
same,cytotoxicity at 1 µM,"in vitro; Percent Cytotoxicity (Neutral Red), Vero E6, SARS2-735, 1 µM",3.8%
same,cytotoxicity at 10 µM,"in vitro; Percent Cytotoxicity (Neutral Red), Vero E6, SARS2-735, 10 µM",38.5%
